± gives the standard deviation of the averaged measurements.
Key:
Test in all cases: level (log10 ratio to DMSO vehicle control); higher = higher biomarker level / cell amount than vehicle control
Conditions in all cases: in DMSO
[1] = compound: O=S(=O)(F)C(F)(F)C(F)(F)C(F)(F)C(F)(F)C(F)(F)C(F)(F)C(F)(F)C(F)(F)F [Perfluorooctanesulfonyl fluoride]
Method: (§1)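 BioMAP Diversity Plus panel of 12 human primary cell co-culture systems (3C, 4H, LPS, SAg, BT, BF4T, BE3C, CASM3C, HDF3CGF, KF3CT, MyoF, Mphg). Compounds were added 1 h before stimulation and left for 24 h (MyoF 48 h; BT 72 h for soluble read-outs or 6 d for IgG). Biomarkers were read by ELISA, cytotoxicity by SRB, PBMC viability and proliferation by Alamar Blue. Each well value was divided by the mean of 8 DMSO control wells on the same plate and log10 transformed; duplicate blinded samples were tested at 4 concentrations.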

[2] = compound: NC(=O)C(F)(F)C(F)(F)C(F)(F)C(F)(F)C(N)=O [Octafluoroadipamide]
Method: as §1

[3] = compound: OCC(F)(F)C(F)(F)C(F)(F)CO [Hexafluoroamylene glycol]
Method: as §1

[4] = compound: NC(=O)C(F)(F)C(F)(F)C(F)(F)C(F)(F)F [Nonafluoropentanamide]
Method: as §1

[5] = compound: FC(F)(F)C(F)(F)C(F)(F)C(F)(F)C(F)(F)C(F)(F)C(F)(F)I [1-Iodopentadecafluoroheptane]
Method: as §1

[6] = compound: COC(=O)C(F)(F)C(F)(F)OC(F)(C(F)(F)F)C(F)(F)OC(F)=C(F)F [Methyl perfluoro(3-(1-ethenyloxypropan-2-yloxy)propanoate)]
Method: as §1

[7] = compound: O=C(O)C=CC(F)(C(F)(F)F)C(F)(F)F [3-(Perfluoroisopropyl)-2-propenoic acid]
Method: as §1

Test System | level (log10) ([1]; 6700 nM) | level (log10) ([1]; 20000 nM) | level (log10) ([1]; 60000 nM) | level (log10) ([2]; 6700 nM) | level (log10) ([2]; 20000 nM) | level (log10) ([2]; 60000 nM) | level (log10) ([3]; 6700 nM) | level (log10) ([3]; 20000 nM) | level (log10) ([3]; 60000 nM) | level (log10) ([4]; 6700 nM) | level (log10) ([4]; 20000 nM) | level (log10) ([4]; 60000 nM) | level (log10) ([5]; 6700 nM) | level (log10) ([5]; 20000 nM) | level (log10) ([6]; 6700 nM) | level (log10) ([6]; 20000 nM) | level (log10) ([7]; 6700 nM) | level (log10) ([7]; 20000 nM) | level (log10) ([7]; 60000 nM)
CASM3C:HLA-DR | 0.0065 ± 0.022 | -0.0035 ± 0.0092 | 0.008 ± 0.0057 | -0.0105 ± 0.022 | -0.019 ± 0.0057 | 0.01 ± 0.018 | 0.014 ± 0.016 | 0.0095 ± 0.015 | -0.0015 ± 0.028 | -0.0315 ± 0.005 | -0.0005 ± 0.036 | -0.0275 ± 0.021 | -0.0255 ± 0.023 | 0.008 ± 0.023 | 0.0145 ± 0.015 | 0.0155 ± 0.022 | -0.033 ± 0.011 | -0.0465 ± 0.022 | 0.0095 ± 0.044
4H:CD87/uPAR | 0.013 ± 0.028 | 0.008 ± 0.033 | 0.001 ± 0.0042 | -0.036 ± 0.045 | -0.031 ± 0.023 | -0.065 ± 0.0057 | 0.0015 ± 0.0021 | -0.0205 ± 0.037 | -0.027 ± 0.023 | -0.032 ± 0.0071 | 0.0085 ± 0.005 | 0.009 ± 0.041 | -0.013 ± 0.023 | 0.0035 ± 0.012 | 0.0215 ± 0.019 | 0.047 ± 0.044 | 0.034 ± 0.016 | 0.055 ± 0.054 | 0.105 ± 0.027
MyoF:bFGF | 0 ± 0.0014 | -0.0085 ± 0.00071 | 0.0095 ± 0.018 | -0.0115 ± 0.015 | -0.014 ± 0.011 | 0.0135 ± 0.0078 | -0.007 ± 0.017 | 0.006 ± 0.0085 | 0.0125 ± 0.019 | 0.0185 ± 0.023 | -0.003 ± 0.0099 | -0.007 ± 0.0057 | 0.0165 ± 0.016 | -0.0075 ± 0.015 | 0.016 ± 0.0099 | 0.037 ± 0.021 | 0 ± 0.0028 | 0.006 ± 0.027 | 0.006 ± 0.017
3C:CD106/VCAM-1 | -0.009 ± 0.0099 | -0.003 ± 0.013 | -0.01 ± 0.023 | -0.0215 ± 0.08 | -0.02 ± 0.055 | 0.0005 ± 0.079 | -0.0205 ± 0.013 | -0.031 ± 0.011 | -0.0065 ± 0.0092 | -0.024 ± 0.028 | -0.0135 ± 0.039 | -0.016 ± 0.0071 | -0.0165 ± 0.016 | -0.005 ± 0.011 | -0.016 ± 0.0057 | -0.0235 ± 0.015 | -0.002 ± 0.03 | -0.039 ± 0.037 | -0.0205 ± 0.00071
4H:CD62P/P-selectin | 0.061 ± 0.021 | -0.034 ± 0.079 | -0.0275 ± 0.0064 | -0.013 ± 0.0042 | -0.0165 ± 0.032 | -0.0175 ± 0.016 | -0.029 ± 0.095 | 0.014 ± 0.058 | -0.0385 ± 0.0021 | -0.0135 ± 0.043 | -0.0075 ± 0.029 | 0.0075 ± 0.05 | 0.0125 ± 0.021 | 0.0035 ± 0.022 | 0.0115 ± 0.079 | 0.0095 ± 0.073 | -0.001 ± 0.02 | -0.0105 ± 0.012 | 0.023 ± 0.0085
HDF3CGF:Collagen I | -0.0055 ± 0.057 | 0.015 ± 0.014 | 0.041 ± 0.027 | -0.005 ± 0.0057 | -0.015 ± 0.033 | 0.0045 ± 0.042 | -0.005 ± 0.047 | 0.005 ± 0.09 | 0.0485 ± 0.12 | 0.02 ± 0.031 | 0.013 ± 0.057 | 0.067 ± 0.033 | 0.017 ± 0.033 | -0.005 ± 0.017 | 0.013 ± 0.095 | 0.069 | -0.0205 ± 0.043 | -0.0065 ± 0.023 | 0.0475 ± 0.035
lMphg:CD40 | -0.023 ± 0.051 | -0.0205 ± 0.049 | -0.0575 ± 0.042 | -0.0055 ± 0.0021 | -0.0125 ± 0.0035 | 0.0155 ± 0.00071 | -0.0175 ± 0.0021 | -0.002 ± 0.0028 | -0.0285 ± 0.039 | 0.0255 ± 0.03 | 0.0255 ± 0.029 | -0.0095 ± 0.012 | -0.0175 ± 0.052 | -0.0365 ± 0.046 | -0.0295 ± 0.0064 | -0.0365 ± 0.028 | -0.0395 ± 0.053 | -0.01 ± 0.025 | -0.0045 ± 0.019
HDF3CGF:EGFR | -0.0255 ± 0.067 | -0.089 ± 0.17 | -0.0715 ± 0.19 | -0.012 ± 0.082 | 0.0015 ± 0.054 | 0.0145 ± 0.087 | -0.028 ± 0.02 | -0.0305 ± 0.04 | -0.0035 ± 0.005 | -0.067 ± 0.058 | -0.048 ± 0.016 | -0.002 ± 0.042 | 0.011 ± 0.02 | 0.0135 ± 0.042 | 0.0505 ± 0.054 | -0.005 ± 0.12 | -0.0025 ± 0.005 | 0.0015 ± 0.005 | 0.0265 ± 0.025
MyoF:Collagen I | 0.0005 ± 0.0035 | -0.005 ± 0.0099 | 0.003 ± 0.016 | -0.0015 ± 0.015 | 0.009 ± 0.0071 | 0.0135 ± 0.0021 | 0.012 ± 0.0028 | -0.0045 ± 0.016 | 0.019 ± 0.017 | -0.015 ± 0.025 | -0.0085 ± 0.047 | 0.001 ± 0.0071 | -0.0495 ± 0.0021 | -0.339 ± 0.012 | -0.007 ± 0.011 | 0.0095 ± 0.019 | -0.0025 ± 0.012 | -0.002 ± 0.0042 | 0.002 ± 0.0085
lMphg:CXCL8/IL-8 | 0.0275 ± 0.0078 | 0.0145 ± 0.013 | 0.0335 ± 0.011 | 0.003 ± 0.054 | -0.0095 ± 0.069 | 0.0455 ± 0.026 | 0.014 ± 0.021 | -0.0215 ± 0.016 | 0.0185 ± 0.06 | 0.012 ± 0.041 | 0.005 ± 0.02 | 0.027 ± 0.014 | -0.018 ± 0.0071 | 0.0165 ± 0.019 | 0.135 | 0.211 ± 0.014 | -0.0225 ± 0.0021 | -0.006 ± 0.0028 | 0.0415 ± 0.054
lMphg:sIL-10 | -0.0605 ± 0.096 | -0.0755 ± 0.11 | 0.0005 ± 0.063 | -0.0295 ± 0.021 | -0.012 ± 0.11 | -0.1 ± 0.017 | -0.0035 ± 0.0092 | -0.0155 ± 0.016 | -0.0135 ± 0.0021 | -0.0615 ± 0.044 | -0.0475 ± 0.00071 | 0.0505 ± 0.073 | 0.004 ± 0.081 | -0.0995 ± 0.021 | -0.0355 ± 0.0035 | -0.102 ± 0.04 | -0.055 ± 0.064 | -0.048 ± 0.017 | -0.082 ± 0.0071
MyoF:CD106/VCAM-1 | -0.0105 ± 0.00071 | -0.0105 ± 0.005 | -0.0185 ± 0.011 | -0.006 ± 0.021 | 0.026 ± 0.0057 | 0.002 ± 0.0014 | -0.0015 ± 0.0092 | -0.022 ± 0.02 | -0.0045 ± 0.015 | -0.016 ± 0.0014 | -0.003 | 0.0055 ± 0.016 | -0.091 ± 0.0057 | -0.448 ± 0.019 | -0.03 ± 0.0014 | -0.0365 ± 0.019 | 0.006 ± 0.011 | 0.0035 ± 0.00071 | -0.0035 ± 0.0035
lMphg:CCL2/MCP-1 | -0.004 ± 0.023 | -0.0245 ± 0.023 | -0.0165 ± 0.0021 | 0.0185 ± 0.016 | 0.0035 ± 0.0021 | 0.005 ± 0.025 | -0.001 ± 0.03 | -0.0115 ± 0.0064 | -0.007 ± 0.023 | 0.0005 ± 0.0021 | 0.0025 ± 0.049 | 0.0225 ± 0.037 | 0.009 ± 0.0085 | 0.018 ± 0.02 | -0.0045 ± 0.0064 | 0.0335 ± 0.044 | -0.023 ± 0.014 | -0.0275 ± 0.011 | 0.006 ± 0.03
HDF3CGF:M-CSF | 0.0175 ± 0.005 | 0.0015 ± 0.0078 | -0.013 ± 0.058 | -0.017 ± 0.054 | -0.0215 ± 0.073 | 0.023 ± 0.0028 | -0.014 ± 0.02 | -0.0235 ± 0.066 | -0.0495 ± 0.077 | -0.006 ± 0.017 | 0.01 ± 0.0014 | 0.0095 ± 0.021 | -0.0165 ± 0.018 | -0.0165 ± 0.0064 | 0.031 ± 0.058 | -0.074 ± 0.069 | -0.0005 ± 0.0021 | 0.001 ± 0.0028 | 0 ± 0.0057
3C:CCL2/MCP-1 | -0.014 ± 0.0014 | -0.0215 ± 0.011 | 0.001 ± 0.021 | -0.0065 ± 0.016 | -0.002 ± 0.0014 | 0.03 ± 0.013 | -0.024 ± 0.013 | -0.013 ± 0.0042 | -0.003 | -0.0045 ± 0.016 | -0.0125 ± 0.018 | 0.011 ± 0.058 | -0.0175 ± 0.005 | 0.023 ± 0.027 | 0.0045 ± 0.0064 | 0.0175 ± 0.032 | 0.0025 ± 0.022 | -0.009 ± 0.0014 | 0.019 ± 0.02
